Results from US20110305637A1, “RADIOLABELLED PDE10 LIGANDS” (Janssen Pharmaceutica N.V., priority 2009, published 2011).
“And” between values parts separate entries of the source, which are not always exact repeats. Equal values may be shown once.

Assay: Biodistribution study in male Wistar rats
Type: in vivo, rat
Method: (§1) The biodistribution study of [^18F]B-1 was carried out in male Wistar rats (body weight 250-350 g) at 2 min, 30 min and 60 min post injection (p.i.) (n=3/time point). Rats were injected with about 1.1 MBq of the tracer via tail vein under anesthesia (2.5% Isoflurane in O2 at 1 L/min flow rate) and sacrificed by decapitation at above specified time points. Blood and major organs were collected in tared tubes and weighed. The radioactivity in blood, organs and other body parts was measured using an automated gamma counter The distribution of radioactivity in different parts of the body at different time points p.i. of the tracer was calculated and expressed as percentage of injected dose (% ID), and as percentage of injected dose per gram tissue (% ID/g) for the selected organs. % ID is calculated as cpm in organ/total cpm recovered. For calculation of total radioactivity in blood, blood mass was assumed to be 7% of the body mass.
as §1, with “[^18F]B-2” for “[^18F]B-1”, “270-340” for “250-350”

[1] = 2 min p.i., % ID/g values normalized for the body weight
[2] = 2 min p.i., normalized for body weight
[3] = 30 min p.i., % ID/g values normalized for the body weight

For `[18F]CCCn1cc(-c2ccncc2)c(-c2ccc(OCc3ccc4ccccc4n3)cc2)n1` [[^18F]B-1], which “% ID in Carcass” value (2 min p.i.) is on record?
Its value is 27.70 ± 0.7 % ID.

And the “% ID in Cerebellum” value (2 min p.i.)?
The value was 0.096 ± 0.0 % ID.

And the “% ID in Cerebrum total” value (2 min p.i.)?
Its value is 0.4 % ID and 0.407 ± 0.1 % ID.

And the “% ID in Cortex” value (2 min p.i.)?
Its value is 0.072 ± 0.01 % ID.

And the “% ID in Heart” value (2 min p.i.)?
The value was 0.87 ± 0.1 % ID.

What about the “% ID in Hippocampus” value (2 min p.i.) of the same compound?
The value was 0.013 ± 0.00 % ID.

What about the “% ID in Intestines” value (2 min p.i.) of the same compound?
The value was 8.89 ± 0.5 % ID.

What about the “% ID in Kidneys” value (2 min p.i.) of the same compound?
Its value is 5.31 ± 0.7 % ID.

And the “% ID in Liver” value (2 min p.i.)?
The value was 48.20 ± 1.8 % ID.

What about the “% ID in Lungs” value (2 min p.i.) of the same compound?
The value was 2.79 ± 0.6 % ID.

What about the “% ID in Rest of cerebrum” value (2 min p.i.) of the same compound?
The value was 0.307 ± 0.05 % ID.

And the “% ID in Spleen + Pancreas” value (2 min p.i.)?
Its value is 1.63 ± 0.1 % ID.

What about the “% ID in Stomach” value (2 min p.i.) of the same compound?
The value was 1.74 ± 0.2 % ID.

And the “% ID in Striatum” value (2 min p.i.)?
The value was 0.015 % ID and 0.015 ± 0.00 % ID.

And the “% ID in Urine” value (2 min p.i.)?
Its value is 0.09 ± 0.0 % ID.

What about the “% ID/g in Blood” value (2 min p.i.) of the same compound?
Its value is 0.19 ± 0.02 % ID/g.

What about the “% ID/g in Cerebellum” value (2 min p.i.) of the same compound?
Its value is 0.39 ± 0.06 % ID/g.

What about the “% ID/g in Cerebrum + Cerebellum” value (2 min p.i.) of the same compound?
Its value is 0.33 ± 0.05 % ID/g.

What about the “% ID/g in Cerebrum total” value (2 min p.i.) of the same compound?
Its value is 0.31 ± 0.05 % ID/g.

What about the “% ID/g in Cortex” value (2 min p.i.) of the same compound?
Its value is 0.40 ± 0.11 % ID/g.

What about the “% ID/g in Heart” value (2 min p.i.) of the same compound?
Its value is 1.06 ± 0.20 % ID/g.

And the “% ID/g in Liver” value (2 min p.i.)?
The value was 3.79 ± 0.19 % ID/g.

What about the “% ID/g in Lungs” value (2 min p.i.) of the same compound?
Its value is 2.36 ± 0.75 % ID/g.

What about the “% ID/g in Rest of cerebrum” value (2 min p.i.) of the same compound?
Its value is 0.30 ± 0.04 % ID/g.

And the “% ID/g in Spleen + Pancreas” value (2 min p.i.)?
The value was 1.18 ± 0.17 % ID/g.

What about the striatum/blood ratio [1] of the same compound?
Its striatum/blood ratio is 2.1.

What about the striatum/cortex ratio [1] of the same compound?
The striatum/cortex ratio was 1.0.

And the striatum/hippocampus ratio [1]?
The striatum/hippocampus ratio was 2.0.

What about the “total brain uptake of the tracer” value (2 min p.i., % of injected dose) of the same compound?
The value was ~0.5%.

And the “% ID/g × kg in Blood” value [2]?
Its value is 0.05 ± 0.00 % ID/g × kg.

What about the “% ID/g × kg in Cerebellum” value [2] of the same compound?
Its value is 0.100 ± 0.02 % ID/g × kg.

What about the “% ID/g × kg in Cerebrum + Cerebellum” value [2] of the same compound?
The value was 0.08 ± 0.01 % ID/g × kg.

What about the “% ID/g × kg in Cerebrum total” value [2] of the same compound?
The value was 0.080 ± 0.01 % ID/g × kg.

And the “% ID/g × kg in Cortex” value [2]?
Its value is 0.103 ± 0.03 % ID/g × kg.

What about the “% ID/g × kg in Heart” value [2] of the same compound?
Its value is 0.27 ± 0.05 % ID/g × kg.

And the “% ID/g × kg in Hippocampus” value [2]?
Its value is 0.052 ± 0.01 % ID/g × kg.

And the “% ID/g × kg in Kidneys” value [2]?
Its value is 0.57 ± 0.07 % ID/g × kg.

And the “% ID/g × kg in Liver” value [2]?
Its value is 0.97 ± 0.05 % ID/g × kg.

What about the “% ID/g × kg in Lungs” value [2] of the same compound?
Its value is 0.60 ± 0.19 % ID/g × kg.

And the “% ID/g × kg in Rest of cerebrum” value [2]?
The value was 0.077 ± 0.01 % ID/g × kg.

What about the “% ID/g × kg in Spleen + Pancreas” value [2] of the same compound?
Its value is 0.30 ± 0.04 % ID/g × kg.

What about the “% ID/g × kg in Striatum” value [2] of the same compound?
The value was 0.102 ± 0.01 % ID/g × kg.

What about the “% ID in Blood” value (30 min p.i.) of the same compound?
The value was 2.12 ± 0.1 % ID.

And the “% ID in Carcass” value (30 min p.i.)?
Its value is 25.24 ± 1.7 % ID.

And the “% ID in Cerebellum” value (30 min p.i.)?
Its value is 0.021 ± 0.0 % ID.

And the “% ID in Cerebrum total” value (30 min p.i.)?
Its value is 0.158 ± 0.01 % ID.

What about the “% ID in Cortex” value (30 min p.i.) of the same compound?
Its value is 0.018 ± 0.00 % ID.

And the “% ID in Heart” value (30 min p.i.)?
The value was 0.22 ± 0.0 % ID.

What about the “% ID in Hippocampus” value (30 min p.i.) of the same compound?
The value was 0.004 ± 0.00 % ID.

And the “% ID in Intestines” value (30 min p.i.)?
The value was 14.44 ± 3.0 % ID.

What about the “% ID in Kidneys” value (30 min p.i.) of the same compound?
Its value is 1.55 ± 0.1 % ID.

What about the “% ID in Liver” value (30 min p.i.) of the same compound?
Its value is 49.64 ± 5.3 % ID.

What about the “% ID in Lungs” value (30 min p.i.) of the same compound?
Its value is 1.81 ± 0.0 % ID.

What about the “% ID in Rest of cerebrum” value (30 min p.i.) of the same compound?
Its value is 0.122 ± 0.00 % ID.

What about the “% ID in Spleen + Pancreas” value (30 min p.i.) of the same compound?
The value was 0.42 ± 0.1 % ID.

What about the “% ID in Stomach” value (30 min p.i.) of the same compound?
The value was 4.60 ± 0.6 % ID.

And the “% ID in Striatum” value (30 min p.i.)?
Its value is 0.014 ± 0.00 % ID.

What about the “% ID in Urine” value (30 min p.i.) of the same compound?
The value was 0.61 ± 0.3 % ID.

What about the “% ID/g in Blood” value (30 min p.i.) of the same compound?
Its value is 0.12 ± 0.01 % ID/g.

What about the “% ID/g in Cerebellum” value (30 min p.i.) of the same compound?
Its value is 0.09 ± 0.01 % ID/g.

And the “% ID/g in Cerebrum + Cerebellum” value (30 min p.i.)?
The value was 0.12 ± 0.01 % ID/g.

And the “% ID/g in Cerebrum total” value (30 min p.i.)?
Its value is 0.12 ± 0.01 % ID/g.

And the “% ID/g in Cortex” value (30 min p.i.)?
Its value is 0.11 ± 0.02 % ID/g.

What about the “% ID/g in Heart” value (30 min p.i.) of the same compound?
Its value is 0.26 ± 0.02 % ID/g.

And the “% ID/g in Hippocampus” value (30 min p.i.)?
Its value is 0.08 ± 0.01 % ID/g.

What about the “% ID/g in Kidneys” value (30 min p.i.) of the same compound?
The value was 0.64 ± 0.04 % ID/g.

What about the “% ID/g in Liver” value (30 min p.i.) of the same compound?
Its value is 4.00 ± 0.37 % ID/g.

And the “% ID/g in Lungs” value (30 min p.i.)?
Its value is 1.38 ± 0.11 % ID/g.

What about the “% ID/g in Rest of cerebrum” value (30 min p.i.) of the same compound?
Its value is 0.12 ± 0.01 % ID/g.

What about the “% ID/g in Spleen + Pancreas” value (30 min p.i.) of the same compound?
Its value is 0.27 ± 0.01 % ID/g.

And the “% ID/g in Striatum” value (30 min p.i.)?
The value was 0.41 ± 0.00 % ID/g.

What about the striatum/blood ratio [3] of the same compound?
Its striatum/blood ratio is 3.5.

And the striatum/cerebellum ratio [3]?
Its striatum/cerebellum ratio is 4.6.

And the striatum/cortex ratio [3]?
Its striatum/cortex ratio is 3.9.

What about the striatum/hippocampus ratio [3] of the same compound?
The striatum/hippocampus ratio was 5.1.
